Numbers after ± are expanded uncertainties.
Conditions: Liquid, Ebulliometric method (Recirculating still)

For CC=C(C)C#N [2-methyl-2-butenenitrile], the “vapor or sublimation pressure” value (367.43 K) was 50 ± 1 kPa and the “vapor or sublimation pressure” value (392.75 K) was 100 ± 2 kPa.

For CC=CCC#N [3-pentenenitrile], the “vapor or sublimation pressure” value (393.48 K) was 50 ± 1 kPa and the “vapor or sublimation pressure” value (418.25 K) was 100 ± 2 kPa.

In the case of C=CC1CC=CCC1 (stereo unspecified) [4-ethenylcyclohexene], the “vapor or sublimation pressure” value (377.75 K) is reported as 50 ± 1 kPa and the “vapor or sublimation pressure” value (401.42 K) is reported as 100 ± 2 kPa.

— the NIST ThermoML archive (doi:10.1021/acs.jced.6b00388)
